Assay results published in patent publication US20220267720A1, “FIBROSIS-SPECIFIC CELL CULTURE SUBSTRATE AND METHODS OF USE” (Xylyx Bio, Inc., priority 2019, published 2022).

Legend:
[1] = test system: Normal human pulmonary fibroblasts; assay: Proliferation and myofibroblast differentiation assay in fibrotic human lung ECM hydrogel; assay type: cell-based
Method: Normal human pulmonary fibroblasts were cultured in fibrotic human lung ECM hydrogel for up to 5 days and subjected to live cell imaging with CellTracker™ red, immunofluorescence imaging in multi-well plates, and a common cell-based proliferation assay. Cells were cultured in fibrotic lung ECM hydrogel for 2 days, then TGFβ1 (5 nM) was added to induce myofibroblast differentiation, along with 2.7 mM Pirfenidone (FDA-approved gold standard anti-fibrotic drug) or DMSO vehicle ([…]) control for […] prior to assay readouts on day 5. […] After 48 hours, 1standard immunofluorescence staining was performed in situ in 96-well plates. Fibroblasts expressed vimentin, αSMA, and proliferation marker Ki67 (white arrows, FIG. 21B).

Normal HSC [2] = assay: Ki67 immunofluorescence imaging of HSC in fibrotic human liver ECM hydrogel; assay type: cell-based; settings: for Ki67 positive cells after Pirfenidone treatment: 2.7 mM Pirfenidone; for proliferating Ki67+ cells (change): fibrotic liver ECM hydrogel, TGFβ1 25 nM, Pirfenidone 2.7 mM, readout day 5
Method: (§1) Normal HSC were cultured in fibrotic human liver ECM hydrogel for up to 5 days. Cells were cultured in fibrotic liver ECM hydrogel for 2 days, then TGFβ1 (25 nM) was added to induce activation, along with 2.7 mM Pirfenidone (FDA-approved gold standard anti-fibrotic drug) or DMSO vehicle (1%) control for 3 days prior to assay readouts on day 5. Cell-based proliferation assay, immunofluorescence imaging in multi-well plates, and Elisa for ProCollagen1 were performed. […] Conclusions: We confirmed compatibility of normal & fibrotic liver ECM hydrogel with common analytical techniques & assays used in early-stage drug development including discovery, screening, target validation.

Normal HSC [3] = assay: Cell-based proliferation assay of HSC in fibrotic human liver ECM hydrogel; settings: TGFβ1 25 nM, Pirfenidone 2.7 mM, 3 days, readout day 5
Method: as §1

[4] = test system: human hepatic stellate cells (HSC); assay: IC50 response of hepatic stellate cells to Erlotinib, XTT assay; assay type: cell-based; settings: HSC on fibrotic or normal soluble ECM or plastic, 72 hours with drug
Method: Methods: Primary human hepatocytes, HepG2 cells (human hepatocarcinoma cell type commonly used to model hepatocytes), and human hepatic stellate cells (HSC) were cultured for up to 7 days on normal or fibrotic human liver matrix scaffolds, Matrigel, collagen I hydrogels, and/or tissue culture plates (plastic) with or without collagen I coating.
HSCs differentially expressed fibrosis-related genes ACTA2, COL1A1 LOXL2 and PDGFR2 in liver scaffolds versus tissue plastic and Coll coated plates (FIG. 11B). […] Although morphologic similarities were observed between HSC cultured in fibrotic and normal liver ECM scaffolds, morphology differed from HSC cultured on artificial substrates (FIG. 11C). […] To test whether HSC cultured on different ECM respond differently to drug treatment then cells grown in standard 2D we measured the IC50 response of HSC to Erlotinib, an inhibitor of the epidermal growth factor receptor (EGFR) tyrosine, used for the treatment for several cancers and currently is in clinical trials for the treatment of hepatocarcinomatous originating from cirrhotic livers (FIG. 11F). 5000 cells were plated on 96 wells on fibrotic or normal ECM soluble ECM and on plastic. 24 hours later Erlotinib or DMSO vehicle in different concentrations was added. Cells were grown with drugs for 72 hours (with media+drug replenished every day). Cell number were assed using a standard XTT assay.

pulmonary fibroblasts [5] = assay: Gene expression of fibroblasts in IPF matrix scaffolds treated with antifibrotic agent; assay type: cell-based, human
pulmonary fibroblasts [6] = assay: Growth curves of pulmonary fibroblasts in IPF and normal lung matrix scaffolds exposed to antifibrotic agent; assay type: cell-based, human
[7] = Diffusivity of fluorescent trackers through liver ECM hydrogels; assay type: physicochemical
From the text: Physiochemical characterizations of fibrotic and normal human liver matrix hydrogels.

[8] = fibroblasts in IPF matrix scaffolds
[9] = fibrotic lung ECM scaffolds compared to tissue culture plastic

With `Cc1ccc(=O)n(-c2ccccc2)c1` [Pirfenidone] the “proliferation of lung fibroblasts” value ([1]; 2.7 mM Pirfenidone with TGFβ1 5 nM, readout day 5) was “decrease proliferation”, the “Ki67 positive cells after Pirfenidone treatment” value (Normal HSC [2]; HSC on liver ECM) was ~20% and the “Ki67 positive cells after Pirfenidone treatment” value (Normal HSC [2]; HSC on plastic) was “over 50%”. The “proliferating Ki67+ cells (change)” value (Normal HSC [2]) was “significantly reduced” and the cell proliferation (Normal HSC [3]) was “slowed cell proliferation”.
For “TGFβ: transforming growth factor beta, added to induce activation / myofibroblast differentiation”, the αSMA ([1]; TGFβ1 5 nM) was “increased”, the “proliferating Ki67+ cells (change)” value (Normal HSC [2]) was “significantly changed” and the cell proliferation (Normal HSC [3]) was “accelerated cell proliferation”.
With `C#Cc1cccc(Nc2ncnc3cc(OCCOC)c(OCCOC)cc23)c1` [Erlotinib] the “IC50 response of HSC to Erlotinib” value [4] was “lower for cells on normal ECM compared to fibrotic ECM and higher for plastic cultured cells”.
For `Cc1ccc(-c2ccc3c(ccc4sc5c(c43)NC[C@@H](C)NC5=O)n2)cn1` [PF3644022], the “expression of ACTA2” value (pulmonary fibroblasts [5]; [8]) was “consistently reduced”, the “expression of COL1A1” value (pulmonary fibroblasts [5]; [8]) was “consistently reduced” and the “expression of YAP1” value (pulmonary fibroblasts [5]; [8]) was “No significant differences”. The “expression of genes associated with ECM production” value (pulmonary fibroblasts [5]; [9]) was “downregulation”, the “growth of fibroblasts, sensitivity and drug response” value (pulmonary fibroblasts [6]; fibroblasts in IPF matrix scaffolds versus normal lung matrix scaffolds) was “greater sensitivity and drug response” and the “growth of fibroblasts versus untreated cells” value (pulmonary fibroblasts [6]; fibroblasts in normal lung matrix scaffolds, after 6 days) was “not significantly different from untreated cells”. For the same molecule, the “sensitivity and drug response” value (pulmonary fibroblasts [6]; [9]) was “greater sensitivity and drug response”.
For `CC1=CC(C)(C)N(C)c2cc3[o+]c4cc5c(cc4c(-c4cc(NC(=O)c6ccc(CCl)cc6)ccc4C(=O)[O-])c3cc21)C(C)=CC(C)(C)N5C.CC1=CC(C)(C)N(C)c2cc3[o+]c4cc5c(cc4c(-c4ccc(NC(=O)c6ccc(CCl)cc6)cc4C(=O)[O-])c3cc21)C(C)=CC(C)(C)N5C` [CellTracker Red CMTPX], the diffusion rate [7] was > 2 mm h^−1.
